Results taken from patent US20210386367A1, “DEVICES AND SYSTEMS FOR GASTROINTESTINAL MICROBIOME DETECTION AND MANIPULATION” (Progenity, Inc., priority 2018, published 2021).
In brackets after ≈: the same amount, converted by molar mass. Several values for one entry are separate records, joined by “and”; a condition that tells them apart may be missing. Equal values may be shown once. Entries after “also recorded” stand apart in the source; their conditions may differ. Read-outs that look alike come from different tables or passages of the source.

How the values were obtained:
[1] = tested on: Bacteroides fragilis clinical isolates; assay: MIC distribution against clinical isolates; assay type: cell-based
Outline: (§1)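 MIC is the lowest agent concentration preventing growth, determined by broth or agar dilution with serial compound dilutions and incubation under appropriate conditions (e.g., overnight at 37° C.). MIC90 is the concentration inhibiting ≥90% of isolates in the test population.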

Veillonella spp. = assay: Agar dilution MIC, 30 clinical isolates; assay type: cell-based; conditions: for Mode: modal MIC
Clostridium spp. = assay: Agar dilution MIC, 10 clinical isolates; assay type: cell-based; conditions: for Mode: modal MIC
[2] = tested on: Streptococcus agalactiae clinical isolates; assay: MIC distribution against clinical isolates; assay type: cell-based; conditions: 20 S. agalactiae isolates
Outline: as §1

SIBO Bacteria = conditions: cited from earlier work
B. fragilis ATCC 25285 = assay: Broth microdilution MIC (time-kill study); assay type: cell-based, Bacteroides fragilis
Streptococcus spp. = assay: Spontaneous mutation frequency assay; assay type: cell-based; conditions: for Spontaneous Mutation Frequency: selection at 4× and 8× MIC
Protocol: Initial values of the MIC were determined by agar dilution in accordance with guidelines from the Clinical and Laboratory Standards Institute (CLSI; (1) “Methods for Dilution Antimicrobial Susceptibility Tests for Bacteria That Grow Aerobically; Approved Standard; 11th ed.,” CLSI standard M07, 2018; (2) “Methods for Antimicrobial Susceptibility Testing of Anaerobic Bacteria; Approved Standard—Eighth Edition,” CLSI document M11-A8, 2012.).
The agar plates were prepared by mixing a ratio of 1.0 mL of concentrated drug to 49.0 mL of the appropriate molten (47° C.) agar; the drug-supplemented agar was mixed, poured into 15-by-150 mm petri dishes and allowed to solidify and dry at room temperature prior to inoculation. […] Each plate was allowed to cool at room temperature for at least 1 hr.
The isolates were streaked onto the appropriate agar medium and incubated for 20 hr (aerobes) or 48 hr (Bacteroides under anaerobic conditions). Using a sterile swab, several well-isolated colonies were removed and resuspended in sterile saline at a heavy cell density. Each plate was inoculated with 0.5 mL of the cell suspension (each test concentration was inoculated in duplicate). The target inoculum for each spontaneous mutation plate was 10^9-10 CFU. In addition, a portion of the inoculum from each isolate was enumerated by making dilutions, spreading on agar and counting colonies.
Once the inoculum was absorbed into the agar, the plates were incubated at 35° C. Aerobes were examined at 24 and 48 hr, and resulting colonies were counted. Bacteroides were incubated anaerobically for 48-72 hr in the anaerobe chamber and colonies were counted.
Colony counts from plates used to enumerate the initial inoculum density and from the resulting spontaneous mutation frequency test plates were determined. The inoculum size was calculated as CFU inoculated per plate. The spontaneous mutation frequency was calculated using the counts from duplicate spontaneous mutation assay test plates as follows:
If there were no colonies on the antibiotic selection plates, the spontaneous mutation frequency was reported as less than the frequency observed with one colony to indicate that the spontaneous mutation frequency was less than the limit of detection (one CFU). […] The mutation prevention concentration (MPC) was reported as the lowest concentration for which no mutants were selected.

E. coli MMX 1312 = assay: Time-kill assay; assay type: cell-based, Escherichia coli; conditions: for time-kill kinetics outcome (bactericidal = ≥3 log reduction in CFU per mL): 2×, 4×, 8× MIC, 2, 6, 24 hr
B. ovatus MMX 3503 = assay: Broth microdilution MIC (time-kill study); assay type: cell-based, Bacteroides ovatus
B. vulgatus ATCC 8482 = assay: Broth microdilution MIC (time-kill study); assay type: cell-based, Bacteroides vulgatus
[3] = MIC 0.5 μg/mL, 30 B. fragilis isolates
[4] = MIC 1 μg/mL, 30 B. fragilis isolates
[5] = MIC 2 μg/mL, 30 B. fragilis isolates
[6] = MIC […], 30 B. fragilis isolates
[7] = 30 Veillonella spp. clinical isolates
[8] = 10 Clostridium spp. clinical isolates
[9] = MIC 8 μg/mL, 30 B. fragilis isolates
[10] = MIC 16 μg/mL, 30 B. fragilis isolates
[11] = MIC 32 μg/mL, 30 B. fragilis isolates
[12] = MIC 64 μg/mL, 30 B. fragilis isolates
[13] = Bacteroides fragilis, ATCC25285, broth microdilution, read-out: MIC
[14] = Phocaeicola vulgatus, ATCC8482, broth microdilution, read-out: MIC
[15] = MIC >8 μg/mL, 30 B. fragilis isolates

With `Cc1ncc([N+](=O)[O-])n1CCO` [MTZ] the “Cumulative percentage of isolates inhibited at MIC” value [1, 3] was 30.0%, the “Number of test isolates at MIC” value [1, 3] was 7 and the “Cumulative percentage of isolates inhibited at MIC” value [1, 4] was 76.7%. The “Number of test isolates at MIC” value [1, 4] was 14, the “Cumulative percentage of isolates inhibited at MIC” value [1, 5] was 100.0% and the “Number of test isolates at MIC” value [1, 5] was 7. The “Cumulative percentage of isolates inhibited at MIC” value [1, 6] was 6.7%, the “Number of test isolates at MIC” value [1, 6] was 2 and the “% R” value (Veillonella spp.; [7]) was 17%. The “% S” value (Veillonella spp.; [7]) was 83%, the MIC50 (Veillonella spp.; [7]) was 4 µg/mL (≈ 23.4 µM) and the MIC90 (Veillonella spp.; [7]) was >32 µg/mL. For the same compound, the Mode (Veillonella spp.; [7]) was 4 µg/mL, the “% S” value (Clostridium spp.; [8]) was 100% and the MIC50 (Clostridium spp.; [8]) was 1 µg/mL (≈ 5.84 µM). It also gave an MIC90 (Clostridium spp.; [8]) of 1 µg/mL (≈ 5.84 µM), an MIC range (Clostridium spp.; [8]) of 0.12 to 2 µg/mL and a Mode (Clostridium spp.; [8]) of 1 µg/mL.

For `CO/N=C(\C(=O)N[C@@H]1C(=O)N2C(C(=O)O)=C(CSc3nc(=O)c(=O)[nH]n3C)CS[C@H]12)c1csc(N)n1` [ceftriaxone], the “Cumulative percentage of isolates inhibited at MIC” value [1, 9] was 10.0%, the “Number of test isolates at MIC” value [1, 9] was 3 and the “Cumulative percentage of isolates inhibited at MIC” value [1, 10] was 40.0%. For the same compound, the “Number of test isolates at MIC” value [1, 10] was 9, the “Cumulative percentage of isolates inhibited at MIC” value [1, 11] was 66.7% and the “Number of test isolates at MIC” value [1, 11] was 8. For the same compound, the “Cumulative percentage of isolates inhibited at MIC” value [1, 12] was 73.3%, the “Number of test isolates at MIC” value [1, 12] was 2 and the “Cumulative percentage of isolates inhibited at MIC” value ([1]; listed as CTR) was 76.7% and 100.0%. The “Cumulative percentage of isolates inhibited at MIC” value ([2]; MIC 0.03 μg/mL) was 25.0%, the “Number of test isolates at MIC” value ([2]; MIC 0.03 μg/mL) was 5 and the “Cumulative percentage of isolates inhibited at MIC” value ([2]; MIC 0.06 μg/mL) was 90.0%. The “Number of test isolates at MIC” value ([2]; MIC 0.06 μg/mL) was 1.3, the “Cumulative percentage of isolates inhibited at MIC” value ([2]; MIC […]) was 100.0% and the “Number of test isolates at MIC” value ([2]; MIC […]) was 2. For the same compound, the “activity against SIBO organisms” value (SIBO Bacteria) was “active against SIBO organisms”, the MIC (B. fragilis ATCC 25285; B. fragilis MMX 123 ATCC 25285) was 32 µg/mL (≈ 57.7 µM) and the MIC (B. fragilis ATCC 25285; [13]) was 32 µg/mL (≈ 57.7 µM). For the same compound, the Spontaneous Mutation Frequency (Streptococcus spp.) was ≤ 9.52×10^−10, the isolates resistant (Veillonella spp.) was 3% and the “isolates with intermediate resistance” value (Veillonella spp.) was 10%. For the same compound, the “% I” value (Veillonella spp.; [7]) was 10%, the “% R” value (Veillonella spp.; [7]) was 3% and the “% S” value (Veillonella spp.; [7]) was 87%. The MIC50 (Veillonella spp.; [7]) was 16 µg/mL (≈ 28.9 µM), the MIC90 (Veillonella spp.; [7]) was 32 µg/mL (≈ 57.7 µM) and the MIC50 (Veillonella spp.; Veillonella, read-out: MIC50) was 16 µg/mL (≈ 28.9 µM). The MIC90 (Veillonella spp.; Veillonella, read-out: MIC90) was 32 µg/mL (≈ 57.7 µM), the Mode (Veillonella spp.; [7]) was 16 µg/mL and the isolates susceptible (Clostridium spp.) was “all the isolates were susceptible”. For the same compound, the “% S” value (Clostridium spp.; [8]) was 100%, the MIC50 (Clostridium spp.; [8]) was 8 µg/mL (≈ 14.4 µM) and the MIC90 (Clostridium spp.; [8]) was 16 µg/mL (≈ 28.9 µM). The MIC range (Clostridium spp.; [8]) was 0.5 to 16 µg/mL, the MIC50 (Clostridium spp.; Clostridium) was 8 µg/mL (≈ 14.4 µM) and the MIC90 (Clostridium spp.; Clostridium) was 16 µg/mL (≈ 28.9 µM). The Mode (Clostridium spp.; [8]) was 16 µg/mL, the “time-kill kinetics outcome (bactericidal = ≥3 log reduction in CFU per mL)” value (E. coli MMX 1312) was “killing at 6 and 24 hr that approached 3-logs” and the MIC (B. ovatus MMX 3503; Bacteroides ovatus, MMX3503, B. ovatus MMX 3504 (so in the source)) was > 128 µg/mL. For the same compound, the MIC (B. ovatus MMX 3503; Bacteroides ovatus, MMX3503, broth microdilution) was > 128 µg/mL, the MIC (B. ovatus MMX 3503; broth microdilution) was 128 µg/mL (≈ 231 µM) and the MIC (B. vulgatus ATCC 8482; B. vulgatus ATCC 8482) was 2 µg/mL (≈ 3.61 µM). The MIC (B. vulgatus ATCC 8482; [14]) was 2 µg/mL (≈ 3.61 µM).

For `C[C@@H](O)[C@H]1C(=O)N2C(C(=O)O)=C(S[C@@H]3CN[C@H](C(=O)N(C)C)C3)[C@H](C)[C@H]12` [meropenem], the “Cumulative percentage of isolates inhibited at MIC” value [1, 4] was 80.0%, the “Number of test isolates at MIC” value [1, 4] was 4 and the “Cumulative percentage of isolates inhibited at MIC” value [1, 9] was 83.3%. For the same compound, the “Number of test isolates at MIC” value [1, 9] was 1, the “Cumulative percentage of isolates inhibited at MIC” value [1, 15] was 100.0% and the “Number of test isolates at MIC” value [1, 15] was 5. The “Cumulative percentage of isolates inhibited at MIC” value ([2]; MIC 0.015 μg/mL) was 20.0%, the “Number of test isolates at MIC” value ([2]; MIC 0.015 μg/mL) was 4 and the “Cumulative percentage of isolates inhibited at MIC” value ([2]; MIC 0.03 μg/mL) was 95.0%. The “Number of test isolates at MIC” value ([2]; MIC 0.03 μg/mL) was 15, the “Cumulative percentage of isolates inhibited at MIC” value ([2]; MIC 0.06 μg/mL) was 100.0% and the “Number of test isolates at MIC” value ([2]; MIC 0.06 μg/mL) was 1. The “activity against SIBO organisms” value (SIBO Bacteria) was “active against SIBO organisms”, the MIC (B. fragilis ATCC 25285; B. fragilis MMX 123 ATCC 25285) was 0.06 µg/mL (≈ 0.156 µM) and the MIC (B. fragilis ATCC 25285; [13]) was 0.06 µg/mL (≈ 0.156 µM). For the same compound, the “colonies on selection plates” value (Streptococcus spp.) was “No Streptococcus spp. or Bacteroides spp. colonies were selected”, the Spontaneous Mutation Frequency (Streptococcus spp.) was ≤ 9.52×10^−10 and the “isolates with intermediate resistance” value (Veillonella spp.) was “Twenty-three”. For the same compound, the “relative activity among drugs tested” value (Veillonella spp.) was “most active drug evaluated; also recorded: most active agent”, the “% I” value (Veillonella spp.; [7]) was 23% and the “% S” value (Veillonella spp.; [7]) was 77%. For the same compound, the MIC50 (Veillonella spp.; [7]) was 1 µg/mL (≈ 2.61 µM), the MIC90 (Veillonella spp.; [7]) was 8 µg/mL (≈ 20.9 µM) and the MIC range (Veillonella spp.; [7]) was 0.12 to 8 µg/mL. It also gave an MIC50 (Veillonella spp.; Veillonella, read-out: MIC50) of 1 µg/mL (≈ 2.61 µM), an MIC90 (Veillonella spp.; Veillonella, read-out: MIC90) of 8 µg/mL (≈ 20.9 µM) and a Mode (Veillonella spp.; [7]) of 0.12 µg/mL. The isolates susceptible (Clostridium spp.) was “One hundred”, the “relative activity among drugs tested” value (Clostridium spp.) was “meropenem and metronidazole had similar activity; also recorded: most active agent” and the “% S” value (Clostridium spp.; [8]) was 100%. The MIC50 (Clostridium spp.; [8]) was 1 µg/mL (≈ 2.61 µM), the MIC90 (Clostridium spp.; [8]) was 2 µg/mL (≈ 5.22 µM) and the MIC range (Clostridium spp.; [8]) was 0.06 to 2 µg/mL. It also gave an MIC50 (Clostridium spp.; Clostridium) of 1 µg/mL (≈ 2.61 µM), an MIC90 (Clostridium spp.; Clostridium) of 2 µg/mL (≈ 5.22 µM) and a Mode (Clostridium spp.; [8]) of 1 µg/mL. For the same compound, the “time-kill kinetics outcome (bactericidal = ≥3 log reduction in CFU per mL)” value (E. coli MMX 1312) was “regrowth was observed at 24 hr for all concentrations”, the CFU decrease (E. coli MMX 1312; 8×MIC, 6 hr timepoint) was 3 log10 CFU and the MIC (B. ovatus MMX 3503; B. ovatus MMX 3504 (so in the source)) was 0.12 µg/mL (≈ 0.313 µM). It also gave an MIC (B. ovatus MMX 3503; Bacteroides ovatus, MMX3503, broth microdilution, read-out: MIC) of 0.12 µg/mL (≈ 0.313 µM), an MIC (B. vulgatus ATCC 8482; B. vulgatus ATCC 8482) of 0.12 µg/mL (≈ 0.313 µM) and an MIC (B. vulgatus ATCC 8482; [14]) of 0.12 µg/mL (≈ 0.313 µM).
